Test results: article PMC10002517, “Inhibition of Transglutaminase 2 as a Therapeutic Strategy in Celiac Disease—In Vitro Studies in Intestinal Cells and Duodenal Biopsies” (International Journal of Molecular Sciences, 2023)
Values belong to the molecule of their own block, whether it stands above or below them.

What was measured:
[1] = system: TG2 expression; experiment: Western blotting of TG2 protein expression in Caco-2 cells; type: cell-based, human; conditions: IFN-γ 48 h; normalized to GAPDH; n = 4
Method: […] First, cells were washed two times with cold PBS, scraped off the plate and centrifuged (60 s at 14,100× g). The cell pellet was resuspended in RIPA lysis buffer supplemented with phenylmethylsulfonyl fluoride, protease inhibitor and sodium orthovanadate (1% each), incubated for 20 min on ice and centrifuged (20 min at 14,100 gat 4 °C) afterwards. Supernatant was collected and cell debris was discarded. Protein quantitation was performed using the Pierce BCA protein assay kit (Thermo Fisher Scientific). After denaturation in Laemmli buffer containing 2-mercaptoethanol for 5 min at 95 °C, 10 µg of the protein extract per lane were loaded on a 12% SDS-gel. Electrophoresis was done for 1 h at 40 mA. Protein transfer onto PVDF membrane (0.2 µm pore size) was done using a Transblot Turbo system (Bio-Rad Laboratories) for 30 min (25 V, 1 A). The membrane was blocked for 1 h with 5% non-fat dry milk in PBS + […]. The primary antibodies (anti-TG2 (1:500): CUB7402, Abcam, Cambridge, UK; anti-GAPDH (1:5000): MAB374, Merck Millipore, Darmstadt, Germany) were incubated at 4 °C in blocking buffer overnight. […] Image processing and quantitation were performed using a ChemiDoc XRS+ imager and Image Lab software (BioRad Laboratories, Feldkirchen, Germany).

[2] = system: T-cell stimulation; conditions: cited from earlier work
Description: Even though our results underline the significance of TG2 inhibition, further research is needed to investigate the effects of those inhibitors on gliadin-induced inflammation. In recent studies, these inflammatory mechanisms were only partially mitigated by inhibition of TG2.

[3] = system: gliadin peptide uptake (P31-43 and P57-68); conditions: cited from earlier work
Description: Since TG2 is expressed on the surface of epithelial cells and plays a role in transcytosis, we aimed to investigate the effect of TG2 inhibitors on the epithelial uptake of gliadin peptides. First, we confirmed the results from Caputo et al. and Zimmermann et al. by showing that the translocation of P31-43, but not of P56-88, was inhibited by the endocytosis inhibitor MBCD [21, 37].

[4] = system: transepithelial passage of P31-43 in Caco-2 cells; experiment: Transepithelial transport of promofluor-conjugated gliadin peptide P31-43 across Caco-2 monolayers (fluorometry); type: cell-based, human; conditions: Caco-2 monolayer on transwell, A-B, 7 µg/mL in HBSS, 3 h, TEER >= 350 Ω/cm^2, fluorometry
Method: Transepithelial transport of immunogenic and toxic gliadin peptides were examined in Caco-2 cells 7–14 days after confluency. Caco-2 cells were seeded on semi-permeable transwell supports (ThinCert, culture surface: 33.6 mm², pore size: 0.4 µm) in 24-well plates (Greiner Bio One, Pleidelsheim, Germany). Prior to the transport experiments, the integrity of the cell monolayer was tested by measuring the transepithelial electric resistance (TEER) using a volt-ohm meter (Millipore, Schwalbach, Germany). Monolayers with insufficient TEER (<350 Ω/cm^2) were omitted. The synthesis and purification of promofluor-conjugated gliadin peptides were described elsewhere. Cells were either incubated with the immunogenic peptide P56-88 ([…]) or the toxic gliadin peptide P31-43 (LGQQQPFPPQQPY), 7 µg/mL each, in Hank’s balanced salt solution (HBSS) for 3 h. To investigate the role of TG2 on the transport of gliadin peptides, incubation was performed in the presence of ERW1041 and PX-12. After 3 h, basal and apical supernatants were collected, and the relative fluorescence of the basal compartment was quantified using a FLUOstar Optima (BMG Labtech) microplate reader. Background subtraction was performed against conditions, where no labeled peptides were used. Normalization was performed against conditions, where no inhibitors were used.

[5] = molecular target: T1, TG2 in Caco-2 cell lysates (Homo sapiens, UniProt P21980); experiment: Transglutaminase activity in Caco-2 whole cell lysates (5BP cross-linking); type: biochemical; conditions: mean ± SD, n = 3
T1 construct: endogenous in cells; host or cells: Caco-2 (differentiated; IFN-γ-stimulated in the monolayer assay)
T1 sequence (P21980 1-687): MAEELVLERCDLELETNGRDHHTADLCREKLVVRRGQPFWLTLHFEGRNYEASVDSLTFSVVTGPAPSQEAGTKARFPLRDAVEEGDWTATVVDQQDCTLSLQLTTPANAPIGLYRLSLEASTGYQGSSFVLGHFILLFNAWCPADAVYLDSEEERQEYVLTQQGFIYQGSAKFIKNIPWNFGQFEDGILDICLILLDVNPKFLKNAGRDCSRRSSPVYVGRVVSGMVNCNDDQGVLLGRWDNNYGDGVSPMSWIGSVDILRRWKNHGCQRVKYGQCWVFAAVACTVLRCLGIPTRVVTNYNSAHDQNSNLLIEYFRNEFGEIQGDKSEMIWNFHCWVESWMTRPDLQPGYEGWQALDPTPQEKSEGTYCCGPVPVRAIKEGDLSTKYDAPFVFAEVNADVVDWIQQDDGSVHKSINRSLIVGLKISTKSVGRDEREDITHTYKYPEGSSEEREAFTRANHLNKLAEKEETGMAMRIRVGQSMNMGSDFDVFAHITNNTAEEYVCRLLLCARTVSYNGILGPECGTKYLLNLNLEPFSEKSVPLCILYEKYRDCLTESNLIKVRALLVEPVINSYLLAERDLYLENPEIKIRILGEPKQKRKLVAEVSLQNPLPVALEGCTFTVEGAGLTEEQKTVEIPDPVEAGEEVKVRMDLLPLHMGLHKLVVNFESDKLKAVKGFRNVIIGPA
Method: The method to investigate TG2 activity from whole cell lysates was adapted from Lin et al.. In brief, 20 µg protein per cavity on the 96-well plate were incubated in 50 mM Tris, 1 mM EDTA, 5 mM calcium chloride (pH 7.5) buffer in the presence of 500 µM 5BP (5-biotinamidopentylamine, Thermo Fisher Scientific, Langenselbold, Germany) for the indicated time. After incubation, the plate was washed three times with PBS + 0.05% Tween. After blocking with 5% BSA in PBS for 1 h, the plate was incubated with 2 µg/mL streptavidin-Alexa Fluor 488 (Thermo Fisher Scientific) in 5% BSA. After 3 washing steps with PBS + 0.05% Tween, fluorometric evaluation was performed using a Clariostar Plus (BMG Labtech) microplate reader (no well scan mode, excitation 488 nm, emission 535 nm, fixed gain: 2000).

[6] = molecular target: T2, TG2 in the intestinal lamina propria (Homo sapiens, UniProt P21980); experiment: TG2 activity in cryosections of duodenal biopsies from CD patients (5BP, confocal microscopy); type: biochemical; conditions: increasing amounts of DTT in the incubation buffer
T2 construct: from tissue; host or cells: duodenal biopsies from celiac disease patients (unfixed 400 nm cryosections, lamina propria)
T2 sequence (P21980 1-687): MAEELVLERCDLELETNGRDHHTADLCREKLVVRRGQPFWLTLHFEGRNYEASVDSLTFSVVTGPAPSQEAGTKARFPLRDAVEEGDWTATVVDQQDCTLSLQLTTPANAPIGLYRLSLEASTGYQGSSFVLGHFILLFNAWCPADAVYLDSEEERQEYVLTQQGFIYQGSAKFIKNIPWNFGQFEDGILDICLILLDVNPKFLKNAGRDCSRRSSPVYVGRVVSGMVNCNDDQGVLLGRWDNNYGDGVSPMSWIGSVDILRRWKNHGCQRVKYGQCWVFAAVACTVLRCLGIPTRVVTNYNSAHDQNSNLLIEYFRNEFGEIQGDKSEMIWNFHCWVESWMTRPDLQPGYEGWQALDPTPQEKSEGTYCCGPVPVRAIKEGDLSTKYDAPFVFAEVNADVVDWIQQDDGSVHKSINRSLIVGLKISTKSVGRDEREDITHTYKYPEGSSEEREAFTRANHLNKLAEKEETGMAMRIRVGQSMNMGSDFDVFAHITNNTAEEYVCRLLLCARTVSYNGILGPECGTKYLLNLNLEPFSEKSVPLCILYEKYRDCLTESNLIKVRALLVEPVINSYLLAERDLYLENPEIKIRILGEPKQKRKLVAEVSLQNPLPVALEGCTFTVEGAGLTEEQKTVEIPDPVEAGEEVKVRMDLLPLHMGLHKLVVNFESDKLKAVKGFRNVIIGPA
Method: For immunofluorescence microscopic investigation of transglutaminase activity, only biopsies with minor macroscopic inflammatory signs were used. After endoscopy, biopsies were immediately washed three times in PBS and cryopreserved in polyvinylpyrrolidone sucrose at 4 °C overnight. Biopsies were mounted on specimen holders using Tissue-Tek O.C.T (Sakura Finetek, Staufen im Breisgau, Germany) compound and frozen in liquid nitrogen. For evaluation of transglutaminase activity by the post-embedding procedure, 400 nm cryosections were obtained using a cryo-ultramicrotome (Leica EM UC6, Leica, Wetzlar, Germany) and mounted on class cover slides. After three brief washes with PBS, tissue sections were incubated with the indicated concentrations of the inhibitors for 1 h in tris buffer. Then, the TG2 substrate 5BP was incubated for 1 h at 37 °C in tris buffer containing DTT at the indicated concentration. Slides were washed three times in PBS, fixed in 4% paraformaldehyde (10 min), permeabilized with 0.5% Triton (10 min) and incubated with blocking solution (0.1% cold water fish skin gelatin + 5% BSA + 5% goat serum, 10 min). Afterwards, a rabbit polyclonal antibody directed against human TG2 (Kan5, kindly provided by Dr T. Mothes, Institute of Laboratory Medicine, University Hospital Leipzig, Germany) was applied at 1:200 dilution in blocking solution overnight at 4 °C. After three washing steps (each 5 min) with PBS, Alexa Fluor-555-conjugated secondary antibody (goat-anti-rabbit, 1:200, Thermo Fisher Scientific) and Alexa Fluor-488-conjugated streptavidin (2 µg/mL, Thermo Fisher Scientific) were incubated at room temperature in the dark for 1 h. After three washes with PBS, samples were covered in ProLong Gold antifade mountant (Thermo Fisher Scientific) and sealed with clear nail polish. Sealed slides were stored in the dark at 4 °C until microscopy.
Imaging was done using a confocal laser scanning microscope (TE2000-E, Nikon, Langen, Germany) and a 60× Plan Apo (NA 1.41) immersion oil objective. The detailed acquisition settings and the corresponding macro (Image J [46]) for image processing can be accessed in the Supplementary Materials methods (S1). Five images per patient where quantified. For quantitation, mean fluorescence intensity of TG2 activity (488 nm channel) was normalized to TG2 expression (555 nm channel) within the intestinal lamina propria.

[7] = molecular target: T3, extracellular TG2 on Caco-2 cells (Homo sapiens, UniProt P21980); experiment: Extracellular TG2 activity on confluent Caco-2 cell monolayers (5BP cross-linking); type: cell-based; conditions: for TG2-mediated crosslinking: 1 mM DTT, 3 h with 5BP, mean ± SD, n = 4
T3 construct: endogenous in cells; host or cells: Caco-2 (differentiated; IFN-γ-stimulated in the monolayer assay)
T3 sequence (P21980 1-687): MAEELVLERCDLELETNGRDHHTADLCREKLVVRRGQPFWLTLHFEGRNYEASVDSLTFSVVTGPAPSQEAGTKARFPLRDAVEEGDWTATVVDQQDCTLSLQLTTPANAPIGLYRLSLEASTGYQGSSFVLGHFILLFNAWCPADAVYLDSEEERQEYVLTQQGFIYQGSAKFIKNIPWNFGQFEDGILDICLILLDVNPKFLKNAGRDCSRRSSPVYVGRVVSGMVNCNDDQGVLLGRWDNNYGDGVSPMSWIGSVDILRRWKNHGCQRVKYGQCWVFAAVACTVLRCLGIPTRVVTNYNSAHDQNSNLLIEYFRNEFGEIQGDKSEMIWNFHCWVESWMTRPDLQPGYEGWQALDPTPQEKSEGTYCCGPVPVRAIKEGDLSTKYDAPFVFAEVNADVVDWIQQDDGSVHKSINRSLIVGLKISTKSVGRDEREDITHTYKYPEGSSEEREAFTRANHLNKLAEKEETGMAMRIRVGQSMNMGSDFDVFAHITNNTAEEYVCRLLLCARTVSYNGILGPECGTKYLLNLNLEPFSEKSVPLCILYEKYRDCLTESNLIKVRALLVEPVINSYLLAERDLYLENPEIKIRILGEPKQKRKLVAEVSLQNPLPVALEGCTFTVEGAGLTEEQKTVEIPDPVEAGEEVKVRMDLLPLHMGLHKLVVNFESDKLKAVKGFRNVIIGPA
Method: The method was adapted from Yi et al.. To induce TG2 expression, Caco-2 cells were stimulated with IFN-γ 1000 IU/mL for 48 h. Then, cells were washed three times with warm PBS and incubated with the substrate 5BP for 3 h at 37 °C in 50 mM Tris and 1 mM EDTA (pH 7.5). The substances ERW1041, PX-12 and DTT were added to this solution when indicated. After incubation, cells were washed three times with PBS, fixed with 4% paraformaldehyde for 10 min and blocked with 5% BSA in PBS at 4 °C overnight. Then, cells were incubated at room temperature with streptavidin-Alexa488 (Thermo Scientific, 4 µg/mL) in 5% BSA in the dark for 1 h, followed by three washes with PBS. Fluorometric quantitation was conducted using a FLUOstar Optima microplate reader (BMG Labtech, filter settings: excitation 485 nm, emission 525 nm). Manual gain adjustment was performed, setting the well with the most intense signal as 95%. In all experiments, data were background subtracted against a control without 5BP substrate.

Molecule: IFN-γ: key cytokine of the Th1-driven inflammation in CD, recognized inducer of TG2 expression
TG2 expression on the protein level [1]: almost sevenfold increase

Molecule: NCCSSCCN [cystamine]
CD patients in whom T-cell stimulation was prevented [2]: 50%
effect on gliadin peptide uptake (P31-43 and P57-68) [3]: did not show an effect

Molecule: LGQQQPFPPQQPY [P31-43]
translocation from the apical to the basal compartment [4]: detected in the basal compartment

TG2 activity in Caco-2 cell lysates ([5]; protein lysate treated with 10 mM DTT for 1 h): 395 ± 21%
TG2-mediated crosslinking ([7]; IFN-γ-stimulated Caco-2 cells, not significant): 123 ± 24%
TG2-mediated crosslinking ([7]; non-stimulated Caco-2 cells): 141 ± 17%
Molecule: O[C@@H](CS)[C@@H](O)CS (racemic) [DTT, dithiothreitol]
effect of DTT on TG2 activity in cryopreserved tissue sections [6]: enhanced TG2 activity in the cryopreserved tissue in a dose-dependent manner

increase of extracellular TG2 activity after IFN-γ stimulation ([7]; 1000 IU/mL IFN-γ, 48 h): about 4 times
B1: IFN-γ: key cytokine of the Th1-driven inflammation in CD, recognized inducer of TG2 expression (protein, UniProt P01579 24-161, looked up)
Interferon gamma: QDPYVKEAENLKKYFNAGHSDVADNGTLFLGILKNWKEESDRKIMQSQIVSFYFKLFKNFKDDQSIQKSVETIKEDMNVKFFNSNKKKRDDFEKLTNYSVTDLNVQRKAIHELIQVMAELSPAAKTGKRKRSQMLFRG
TG2 activity in Caco-2 cell lysates ([5]; Caco-2 cells treated with 500 IU/mL IFN-γ for 48 h): 760 ± 259%
